B1: VEGF-C: vascular endothelial growth factor C; media containing VEGF-C used as positive control on HDLEC (protein, listed as Homo sapiens)
chain: MHLLGFFSVACSLLAAALLPGPREAPAAAAAFESGLDLSDAEPDAGEATAYASKDLEEQLRSVSSVDELMTVLYPEYWKMYKCQLRKGGWQHNREQANLNSRTEETIKFAAAHYNTEILKSIDNEWRKTQCMPREVCIDVGKEFGVATNTFFKPPCVSVYRCGGCCNSEGLQCMNTSTSYLSKTLFEITVPLSQGPKPVTISFANHTSCRCMSKLDVYRQVHSIIRRSLPATLPQCQAANKTCPTNYMWNNHICRCLAQEDFMFSSDAGDDSTDGFHDICGPNKELDEETCQCVCRAGLRPASCGPHKELDRNSCQCVCKNKLFPSQCGANREFDENTCQCVCKRTCPRNQPLNPGKCACECTESPQKCLLKGKKFHHQTCSCYRRPCTNRQKACEPGFSYSEEVCRCVPSYWKRPQMS

How the values were obtained:
[1] = test system: afferent collecting lymphatic vessels to the popliteal lymph node; assay: Collecting vessel contraction measures (intravital imaging); type: in vivo, mouse; settings: L-NAME in drinking water 7 days
Procedure: Vessel contraction measurement of afferent collecting lymphatic vessels to the popliteal lymph node (PLN) were performed as described previously (Liao S. et al.). Briefly mice were anesthetized with an intraperitoneal injection of ketamine (100 mg/Kg) and xylazine (10 mg/kg). 6 μL of FITC-Dextran was injected into the footpad of the lower right limb. The skin is carefully removed to expose afferent collecting lymphatic vessels to the PLN. Mouse is then placed into a petri dish and onto the stage of an inverted microscope (Leica, DMi8). 4 videos of 90 sec were acquired per mice and the number of contraction and dilatation (difference between maximum and minimum diameter) was analysed using Fiji software. To assess the effect of Apelin, lentiviral vector was injected into the derm in the lower right limb 7 days before the experiment. For L-NAME study, mice were allowed to drink freely for 7 days.

C57B1/6 female mice [2] = assay: Evaluation of dermis fibrosis, Masson's trichrome coloration; type: in vivo, mouse; settings: lymphedema limb skin
Procedure: Dermis fibrosis was evaluated with Masson's trichrome coloration (MST-100T, Cliniscience). Skin sections were deparraffinized and tissue were stained according the manufacturer's recommendations. Images were acquired on a nanozoomer slide scanner. Dermis size quantification was performed using at least 10 measurements of the length between epidermis and hypodermis per field.

C57B1/6 female mice [3] = assay: Histology of skin sections, Lyve1 and CD31 immunostaining; type: in vivo, mouse; settings: lymphedema limb skin
Procedure: Skin of lymphedema and control limb were collected 2 weeks after surgery and fixed in 10% neutral buffered formalin O/N at 4° C. Tissue are then embedded in paraffin and sectioned on a microtome. 5 μm sections were cut and placed on Superfrost Plus slides. Tissue were deparaffinized, rehydrated and antigen unmasking was realized with pH 9 Tris solution (H-3301, Vector Laboratories) 5 min three times in a microwave. After cooling, slides were washed in PBS and then blocked with 5% BSA solution at room temperature in humid chamber. Sections were incubated with primary antibodies O/N at 4° C. (Goat anti-murine Lyvel, R&D AF2125; rabbit anti-CD31, abcam Ab28364) and washed three times in PBS. Sections were incubated with the corresponding secondary antibodies conjugated to Alexa-488 or -594 for 1h at room temperature au 1/400 dilution. DNA was stained with DAPI. Slides were mounted with Dako Fluorescence Mounting Medium (S3023). Images were acquired a fluorescent inverted microscope (Leica, DMi8). Images were analysed with Fiji software.

C57B1/6 female mice [4] = assay: Lymphangiography with FITC-Dextran in lymphedema mouse model; type: in vivo; settings: two weeks after surgery
Procedure: Two weeks after surgery, mice were anesthetized with an intraperitoneal injection of ketamine (100 mg/kg) (Zoletil 100, Virbac) and xylazine (10 mg/kg) (Rompun 2%, Bayer). FITC-Dextran ([…], 2 mg/mL, Sigma) was injected into the footpad of lymphedema and control limb. The fluorescent molecule was taken up by the lymphatics and excluded from the blood vessels. After 5 min, the skin was analyzed under the modular stereo microscope discovery. V12 stereo (Zeiss).

C57B1/6 female mice [5] = assay: Mouse model of secondary lymphedema, limb size measured using caliper; type: in vivo; settings: LV-apelin treated mice submitted to L-NAME treatment
Procedure: Mouse procedures were performed in accordance with EU and national regulation. C57B1/6 mouse were provided by Envigo. All experiments have been approved by the local branch Inserm Rangueil-Purpan of the Midi-Pyrénées ethics committee. Secondary lymphedema was established as previously described (Morfoisse et al. 2018). Briefly, lymphedema was established in the left upper limb of 6 weeks-old C57B1/6 female mice. A partial mastectomy of the second mammary gland is performed in association with axillary and brachial lymphadenectomy. Limb size was measured over time in the axillary region using caliper. Mice sustained edema for a period of 2 weeks. The day of the surgery, PBS or apelin lentiviral vector were injected in intradermic in the lymphedema limb (3 injections of 4 μL). […] For L-NAME (N^G-nitro-L-arginine methyl ester) (Sigma) treatment, L-NAME was resuspended in water (1 mg/ml) and mice were allowed to drink freely for 7 days.

[6] = test system: Human dermal lymphatic endothelial cells (HDLEC); assay: Immunoblotting of AKT, ERK and eNOS phosphorylation; type: cell-based; settings: conditioned media
Procedure: Human dermal lymphatic endothelial cells (HDLEC) (single donor, juvenile foreskin, Promocell, C-12216, >95% of the cells are CD31 positive and podoplanin positive) were cultured in Endothelial Cell Media MV2 (EGM-MV2, Promocell, C-22121). NIH3T3 were cultured in Dulbecco's modified Eagle's medium (DMEM, Sigma, D6429) supplemented with 10% fetal bovine serum (FBS, Gibco, 10270-06) and 1% penicillin-streptomycin. Endothelial cells were used at passage 3-6 and human fibroblasts were used at passage 4-7. Cells were cultured at 37° C. in a 5% CO2 incubator. Culture medium was changed 3 times a week, and the cells were passaged ⅓. For collecting conditioned media, NIH3T3 were grown in 10 cm dishes, after reaching confluence, medium was removed and the cells were washed once with PBS. NIH3T3 were cultured overnight in 5 mL reduced serum medium optiMEM (Gibco), the medium was then collected and used for experiments. HDLEC were treated with 50% conditioned media/50% MV2-05% FBS.
Cells were scrapped and lysed in RIPA buffer (RIPA 2X, Biotech RB4476) supplemented with phosphatase inhibitor (PhosSTOP Easypack, Roche0490687001) and protease inhibitors (protease inhibitor cocktail, Sigma Aldrich). Lysates were centrifuged at 13500 g for 10 minutes at 4° C. Supernatants were then collected and mix with Laemmli buffer containing dithiothreitol (DTT 1 mM). Protein were resolved on 4-15% SDS-PAGE gels and transferred to nitrocellulose membrane (Trans-Blot Turbo RTA transfer kit, #1704271, Biorad). Membranes were blocked for 1h at room temperature in 5% BSA-TBS-T (TBS-0.1% Tween 20) and probed with primary antibody overnight at 4° C. Antibody used are the following: Phospho AKT: AKT-p ser473 (CS #4060S), AKT: santa cruz H136 (S8312), Phospho ERK: ERK1/2-p (MAPKp42/44) (Thr202/Thr204) (cell signalling #9106), ERK ERK1/2-(MAPKp42/44) (Thr202/Thr204) (cell signalling #9102), Phospho eNOS (cell signalling #9571S), eNOS (cell signalling #5880S), E2F8 (Abcam, AB109596), VEGFR3 (RID system AF349), Phospho-VEGFR3 (Affinity AF3676), CCBE1 (Sigma SAB1402017).
After three washes in TBS-T, membranes were probed with HRP-conjugated secondary antibodies at 1/10000 dilution. Signals were visualized with chemiluminescence detection reagent (Sigma) on a Chemidoc (Biorad) digital acquisition system.

[7] = test system: Human dermal lymphatic endothelial cells (HDLEC); assay: Bulk RNA-sequencing, differential gene expression and GO analysis; type: cell-based; settings: compared to WT
Procedure: Human dermal lymphatic endothelial cells (HDLEC) (single donor, juvenile foreskin, Promocell, C-12216, >95% of the cells are CD31 positive and podoplanin positive) were cultured in Endothelial Cell Media MV2 (EGM-MV2, Promocell, C-22121). NIH3T3 were cultured in Dulbecco's modified Eagle's medium (DMEM, Sigma, D6429) supplemented with 10% fetal bovine serum (FBS, Gibco, 10270-06) and 1% penicillin-streptomycin. Endothelial cells were used at passage 3-6 and human fibroblasts were used at passage 4-7. Cells were cultured at 37° C. in a 5% CO2 incubator. Culture medium was changed 3 times a week, and the cells were passaged ⅓. For collecting conditioned media, NIH3T3 were grown in 10 cm dishes, after reaching confluence, medium was removed and the cells were washed once with PBS. NIH3T3 were cultured overnight in 5 mL reduced serum medium optiMEM (Gibco), the medium was then collected and used for experiments. HDLEC were treated with 50% conditioned media/50% MV2-05% FBS. Total RNA from HDLEC transduced or not with Apelin Lentivector were prepared using the RNeasy mini kit (Qiagen 74106). Total RNA were then subjected to ribosomal-RNA depleted RNA sequencing (RNA-Seq) protocol performed by Genewiz company using Illumina HiSeq, PE 2×150 configuration. Sequence reads were trimmed to remove possible adapter sequences and nucleotides with poor quality using Trimmomatic v.0.36. The trimmed reads were mapped to the Homo sapiens GRCh38 reference genome available on ENSEMBL using the STAR aligner v.2.5.2b. The STAR aligner is a splice aligner that detects splice junctions and incorporates them to help align the entire read sequences. BAM files were generated as a result of this step. Unique gene hit counts were calculated by using feature Counts from the Subread package v.1.5.2. The hit counts were summarized and reported using the gene_id feature in annotation file. Only unique reads that fell within exon regions were counted. Distribution of read counts in libraries were examined before and after normalization. The original read counts were normalized to adjust for various factors such as variations of sequencing yield between samples. These normalized read counts were used to accurately determine differentially expressed genes. Data quality assessments were performed to detect any samples that are not representative of their group, and thus, may affect the quality of the analysis. The overall similarity among samples were assessed by the Euclidean distance between samples. This method was used to examine which samples are similar/different to each other and if they fit to the expectation from the experiment design. The shorter the distance, the more closely related the samples are. Samples were then clustered by using the distance. A principal component analysis was also performed to reveal the similarity between samples based on the distance matrix. After extraction of gene hit counts, the gene hit counts table was used for downstream differential expression analysis. Using DESeq2, a comparison of gene expression between Apelin transduced LEC against non-transduced LEC was performed. The Wald test was used to generate p-values and log2 fold changes. […] The global transcriptional change across the two groups compared was visualized by a volcano plot. Each data point in the volcano plot represents a gene. The log2 fold change of each gene is represented on the x-axis and the log10 of its adjusted p-value is on the y-axis.

Molecule | effect on apelin-stimulated collector dilatation [1] | fibrosis (C57B1/6 female mice [2]) | lymphatic vessel dilatation (vessel area / diameter) (C57B1/6 female mice [3]) | lymphatic vessel morphology / remodelling (lymphangiography) (C57B1/6 female mice [4]) | effect on apelin benefit on lymphedema (limb diameter) (C57B1/6 female mice [5]) | eNOS phosphorylation ([6]; HDLEC) | AKT activation (phosphorylation) ([6]; 24 h time course) | ERK activation ([6]; 24 h time course) | expression of genes related to VEGFC maturation (ADAMTS2, CCBE1) [7]
COC(=O)[C@@H](N)CCCNC(=N)N[N+](=O)[O-] [L-NAME, N^G-nitro-L-arginine methyl ester] | completely reversed | no effect on fibrosis | inhibited | reverse apelin effect on lymphatic vascular network | reversed the beneficial effect of apelin on lymphedema | – | – | – | –
B1 | – | – | – | – | – | observed | strong activation | strong activation | improved

Reference: US20260041732A1, “USE OF APELIN FOR THE TREATMENT OF LYMPHEDEMA” (INSTITUT NATIONAL DE LA SANTE ET DE LA RECHERCHE MEDICALE, priority 2022, published 2026)
